Assay results taken from the supplement of paper PMC10307832.

Legend:
Test in all cases: relative viability (nuclei count vs DMSO), 5 days (fraction); higher = more cells survive
H3255 = test system: H3255
Method in brief: (§1)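 The day after seeding in 1536-well plates, lung cancer cell lines were treated by pin tool with a single drug, or with a fixed anchor-drug dose together with five library-drug doses (not always all listed) in √10 steps. After 5 days, a combined fix-and-stain solution (final 0.05% Triton X-100, 1% formaldehyde, 1 ug/ml Hoechst) was added. Nuclei counted on 4× images gave relative viability as treated counts over vehicle counts, reported as the median of duplicate plates.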

NCI-H650 = test system: NCI-H650
Method in brief: as §1

HCC-78 = test system: HCC-78
Method in brief: as §1

NCI-H460 = test system: NCI-H460
Method in brief: as §1

PC-3 [JPC-3] = test system: PC-3 [JPC-3]
Method in brief: as §1

201T = test system: 201T
Method in brief: as §1

NCI-H1650 = test system: NCI-H1650
Method in brief: as §1

NCI-H1651 = test system: NCI-H1651
Method in brief: as §1

COR-L23 = test system: COR-L23
Method in brief: as §1

NCI-H358 = test system: NCI-H358
Method in brief: as §1

HCC-366 = test system: HCC-366
Method in brief: as §1

NCI-H1793 = test system: NCI-H1793
Method in brief: as §1

NCI-H596 = test system: NCI-H596
Method in brief: as §1

NCI-H23 = test system: NCI-H23
Method in brief: as §1

NCI-H3122 = test system: NCI-H3122
Method in brief: as §1

NCI-H2085 = test system: NCI-H2085
Method in brief: as §1

LU99A = test system: LU99A
Method in brief: as §1

NCI-H322M = test system: NCI-H322M
Method in brief: as §1

NCI-H522 = test system: NCI-H522
Method in brief: as §1

NCI-H2087 = test system: NCI-H2087
Method in brief: as §1

SK-LU-1 = test system: SK-LU-1
Method in brief: as §1

HARA = test system: HARA
Method in brief: as §1

NCI-H1755 = test system: NCI-H1755
Method in brief: as §1

`Cc1csc(=NC2CCCCC2)n1/N=C/c1ccc(O)c(O)c1O` [MIM1] + COc1cccc2cc(-c3nc([C@H]4CC[C@H](C(=O)O)CC4)n4ncnc(N)c34)[nH]c12 [OSI-027] (partner 0.5 µM) was tested, and the relative viability (H3255; first compound 0.2 µM) was 0.596, the relative viability (H3255; first compound 0.6325 µM) was 0.575 and the relative viability (H3255; first compound 2 µM) was 0.572. It also gave a relative viability (H3255; first compound 6.325 µM) of 0.519, a relative viability (H3255; first compound 20 µM) of 0.313 and a relative viability (NCI-H650; first compound 0.2 µM) of 0.563. For the same molecule, the relative viability (NCI-H650; first compound 0.6325 µM) was 0.414, the relative viability (NCI-H650; first compound 2 µM) was 0.484 and the relative viability (NCI-H650; first compound 6.325 µM) was 0.533. The relative viability (NCI-H650; first compound 20 µM) was 0.36, the relative viability (HCC-78; first compound 0.2 µM) was 0.365 and the relative viability (HCC-78; first compound 0.6325 µM) was 0.356. For the same molecule, the relative viability (HCC-78; first compound 2 µM) was 0.303, the relative viability (HCC-78; first compound 6.325 µM) was 0.384 and the relative viability (HCC-78; first compound 20 µM) was 0.468. It also gave a relative viability (NCI-H460; first compound 0.2 µM) of 0.651, a relative viability (NCI-H460; first compound 0.6325 µM) of 0.66 and a relative viability (NCI-H460; first compound 2 µM) of 0.42. The relative viability (NCI-H460; first compound 6.325 µM) was 0.423, the relative viability (NCI-H460; first compound 20 µM) was 0.0316 and the relative viability (PC-3 [JPC-3]; first compound 0.2 µM) was 0.749. It also gave a relative viability (PC-3 [JPC-3]; first compound 0.6325 µM) of 0.733, a relative viability (PC-3 [JPC-3]; first compound 2 µM) of 0.647 and a relative viability (PC-3 [JPC-3]; first compound 6.325 µM) of 0.657. The relative viability (PC-3 [JPC-3]; first compound 20 µM) was 0.545, the relative viability (201T; first compound 0.2 µM) was 0.739 and the relative viability (201T; first compound 0.6325 µM) was 0.834. For the same molecule, the relative viability (201T; first compound 2 µM) was 0.745, the relative viability (201T; first compound 6.325 µM) was 0.478 and the relative viability (201T; first compound 20 µM) was 0.272. The relative viability (NCI-H1650; first compound 0.2 µM) was 0.653, the relative viability (NCI-H1650; first compound 0.6325 µM) was 0.668 and the relative viability (NCI-H1650; first compound 2 µM) was 0.447. For the same molecule, the relative viability (NCI-H1650; first compound 6.325 µM) was 0.164, the relative viability (NCI-H1650; first compound 20 µM) was 0.147 and the relative viability (NCI-H1651; first compound 0.2 µM) was 0.745. It also gave a relative viability (NCI-H1651; first compound 0.6325 µM) of 0.806, a relative viability (NCI-H1651; first compound 2 µM) of 0.63 and a relative viability (NCI-H1651; first compound 6.325 µM) of 0.611. The relative viability (NCI-H1651; first compound 20 µM) was 0.612, the relative viability (COR-L23; first compound 0.2 µM) was 0.843 and the relative viability (COR-L23; first compound 0.6325 µM) was 0.955. For the same molecule, the relative viability (COR-L23; first compound 2 µM) was 0.654, the relative viability (COR-L23; first compound 6.325 µM) was 0.603 and the relative viability (COR-L23; first compound 20 µM) was 0.382. It also gave a relative viability (NCI-H358; first compound 0.2 µM) of 0.772, a relative viability (NCI-H358; first compound 0.6325 µM) of 0.7 and a relative viability (NCI-H358; first compound 2 µM) of 0.755. It also gave a relative viability (NCI-H358; first compound 6.325 µM) of 0.447, a relative viability (NCI-H358; first compound 20 µM) of 0.128 and a relative viability (HCC-366; first compound 0.2 µM) of 0.852. For the same molecule, the relative viability (HCC-366; first compound 2 µM) was 0.677, the relative viability (HCC-366; first compound 6.325 µM) was 0.186 and the relative viability (HCC-366; first compound 20 µM) was 0.0446. The relative viability (NCI-H1793; first compound 0.2 µM) was 0.273, the relative viability (NCI-H1793; first compound 2 µM) was 0.247 and the relative viability (NCI-H1793; first compound 6.325 µM) was 0.256. The relative viability (NCI-H1793; first compound 20 µM) was 0.287, the relative viability (NCI-H596; first compound 0.2 µM) was 0.622 and the relative viability (NCI-H596; first compound 0.6325 µM) was 0.757. For the same molecule, the relative viability (NCI-H596; first compound 2 µM) was 0.72, the relative viability (NCI-H596; first compound 6.325 µM) was 0.628 and the relative viability (NCI-H596; first compound 20 µM) was 0.659. For the same molecule, the relative viability (NCI-H23; first compound 0.2 µM) was 0.53, the relative viability (NCI-H23; first compound 2 µM) was 0.563 and the relative viability (NCI-H23; first compound 6.325 µM) was 0.306. It also gave a relative viability (NCI-H23; first compound 20 µM) of 0.156, a relative viability (NCI-H3122; first compound 0.2 µM) of 1.04 and a relative viability (NCI-H3122; first compound 0.6325 µM) of 1.11. It also gave a relative viability (NCI-H3122; first compound 2 µM) of 0.904, a relative viability (NCI-H3122; first compound 6.325 µM) of 0.398 and a relative viability (NCI-H3122; first compound 20 µM) of 0.175. For the same molecule, the relative viability (NCI-H2085; first compound 0.2 µM) was 0.676, the relative viability (NCI-H2085; first compound 0.6325 µM) was 0.808 and the relative viability (NCI-H2085; first compound 2 µM) was 0.712. For the same molecule, the relative viability (NCI-H2085; first compound 6.325 µM) was 0.565, the relative viability (NCI-H2085; first compound 20 µM) was 0.446 and the relative viability (LU99A; first compound 0.2 µM) was 0.274. The relative viability (LU99A; first compound 0.6325 µM) was 0.29, the relative viability (LU99A; first compound 2 µM) was 0.273 and the relative viability (LU99A; first compound 6.325 µM) was 0.288. For the same molecule, the relative viability (LU99A; first compound 20 µM) was 0.233, the relative viability (NCI-H322M; first compound 0.2 µM) was 0.593 and the relative viability (NCI-H322M; first compound 0.6325 µM) was 0.526. It also gave a relative viability (NCI-H322M; first compound 2 µM) of 0.543, a relative viability (NCI-H322M; first compound 6.325 µM) of 0.508 and a relative viability (NCI-H322M; first compound 20 µM) of 0.288. It also gave a relative viability (NCI-H522; first compound 0.2 µM) of 0.761, a relative viability (NCI-H522; first compound 0.6325 µM) of 0.578 and a relative viability (NCI-H522; first compound 2 µM) of 0.717. For the same molecule, the relative viability (NCI-H522; first compound 6.325 µM) was 0.696, the relative viability (NCI-H522; first compound 20 µM) was 0.67 and the relative viability (NCI-H2087; first compound 0.2 µM) was 0.688. The relative viability (NCI-H2087; first compound 0.6325 µM) was 0.511, the relative viability (NCI-H2087; first compound 2 µM) was 0.696 and the relative viability (NCI-H2087; first compound 6.325 µM) was 0.547. It also gave a relative viability (NCI-H2087; first compound 20 µM) of 0.34, a relative viability (SK-LU-1; first compound 0.2 µM) of 0.394 and a relative viability (SK-LU-1; first compound 0.6325 µM) of 0.389. For the same molecule, the relative viability (SK-LU-1; first compound 2 µM) was 0.41, the relative viability (SK-LU-1; first compound 6.325 µM) was 0.316 and the relative viability (SK-LU-1; first compound 20 µM) was 0.325. For the same molecule, the relative viability (HARA; first compound 0.2 µM) was 0.503, the relative viability (HARA; first compound 2 µM) was 0.547 and the relative viability (HARA; first compound 6.325 µM) was 0.166. The relative viability (HARA; first compound 20 µM) was 0.0624, the relative viability (NCI-H1755; first compound 0.2 µM) was 0.833 and the relative viability (NCI-H1755; first compound 0.6325 µM) was 0.69. For the same molecule, the relative viability (NCI-H1755; first compound 2 µM) was 0.779, the relative viability (NCI-H1755; first compound 6.325 µM) was 0.703 and the relative viability (NCI-H1755; first compound 20 µM) was 0.223.
